Some targets named below: Glucagon receptor (Homo sapiens, UniProt P47871); Melanocortin receptor 4 (Homo sapiens, UniProt P32245); Substance-P receptor (Homo sapiens, UniProt P25103); D(1A) dopamine receptor (Homo sapiens, UniProt P21728).
Assay [1] addresses T1, Progesterone receptor (Homo sapiens, UniProt P06401).
T1 sequence (P06401 whole entry): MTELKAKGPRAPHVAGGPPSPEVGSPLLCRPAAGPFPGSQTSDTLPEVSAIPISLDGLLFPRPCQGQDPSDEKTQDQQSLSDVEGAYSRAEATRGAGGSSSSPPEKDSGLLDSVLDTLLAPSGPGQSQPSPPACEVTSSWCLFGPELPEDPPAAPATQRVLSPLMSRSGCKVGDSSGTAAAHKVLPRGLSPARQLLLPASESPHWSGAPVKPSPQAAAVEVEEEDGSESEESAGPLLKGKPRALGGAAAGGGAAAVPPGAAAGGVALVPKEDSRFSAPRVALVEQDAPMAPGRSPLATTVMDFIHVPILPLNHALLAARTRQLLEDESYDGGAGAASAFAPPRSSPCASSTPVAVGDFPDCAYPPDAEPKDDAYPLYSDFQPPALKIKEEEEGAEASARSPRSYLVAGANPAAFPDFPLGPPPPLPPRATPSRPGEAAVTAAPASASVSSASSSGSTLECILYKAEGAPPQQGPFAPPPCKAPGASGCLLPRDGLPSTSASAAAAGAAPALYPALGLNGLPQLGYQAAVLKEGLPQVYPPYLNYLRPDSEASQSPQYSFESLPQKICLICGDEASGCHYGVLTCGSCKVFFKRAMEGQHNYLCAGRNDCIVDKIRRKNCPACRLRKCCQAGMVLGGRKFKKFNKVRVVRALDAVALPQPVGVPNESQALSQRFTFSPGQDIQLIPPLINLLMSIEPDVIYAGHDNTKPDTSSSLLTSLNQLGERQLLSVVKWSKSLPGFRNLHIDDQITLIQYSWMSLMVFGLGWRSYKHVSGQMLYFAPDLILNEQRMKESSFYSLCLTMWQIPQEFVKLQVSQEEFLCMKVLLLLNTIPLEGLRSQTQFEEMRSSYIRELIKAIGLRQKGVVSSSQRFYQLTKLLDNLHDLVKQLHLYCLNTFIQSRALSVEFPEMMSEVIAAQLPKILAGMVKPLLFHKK
Format: functional.

Assay [2] deals with 5-hydroxytryptamine receptor 2A (Homo sapiens, UniProt P28223). Format: functional, cell-based.
The target of assay [3] is Beta-3 adrenergic receptor (Homo sapiens, UniProt P13945).
For assay [4], the target named is T2, Corticotropin-releasing factor receptor 1 (Homo sapiens, UniProt P34998).
T2 sequence (P34998 whole entry): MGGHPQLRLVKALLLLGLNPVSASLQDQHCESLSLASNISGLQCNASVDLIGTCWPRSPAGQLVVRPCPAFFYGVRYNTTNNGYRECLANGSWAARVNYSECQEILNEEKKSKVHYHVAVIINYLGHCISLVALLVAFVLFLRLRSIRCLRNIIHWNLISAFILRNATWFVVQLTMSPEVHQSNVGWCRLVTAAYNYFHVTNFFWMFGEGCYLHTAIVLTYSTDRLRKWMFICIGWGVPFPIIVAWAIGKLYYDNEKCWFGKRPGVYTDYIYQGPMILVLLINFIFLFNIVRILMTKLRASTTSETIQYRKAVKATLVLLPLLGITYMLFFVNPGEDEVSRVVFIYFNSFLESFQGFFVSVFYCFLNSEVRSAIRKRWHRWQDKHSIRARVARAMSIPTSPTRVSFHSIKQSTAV

Assay [5] deals with T3, Corticotropin-releasing factor receptor 2 (Homo sapiens, UniProt Q13324).
T3 sequence (Q13324 whole entry): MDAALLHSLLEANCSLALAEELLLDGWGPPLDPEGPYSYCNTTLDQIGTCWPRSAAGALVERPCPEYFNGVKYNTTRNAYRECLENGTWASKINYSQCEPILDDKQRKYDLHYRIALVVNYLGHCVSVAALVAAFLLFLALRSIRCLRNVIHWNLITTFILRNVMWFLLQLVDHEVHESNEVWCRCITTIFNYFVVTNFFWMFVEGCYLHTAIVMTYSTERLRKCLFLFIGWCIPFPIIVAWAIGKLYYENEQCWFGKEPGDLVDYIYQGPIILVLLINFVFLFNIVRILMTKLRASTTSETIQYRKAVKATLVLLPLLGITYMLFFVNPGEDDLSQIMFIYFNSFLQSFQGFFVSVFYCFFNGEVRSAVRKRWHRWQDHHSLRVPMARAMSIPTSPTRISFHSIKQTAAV

Assay [6] concerns the target T1, Progesterone receptor.
Assay [7] addresses Voltage-dependent N-type calcium channel subunit alpha-1B (Rattus norvegicus, UniProt Q02294). It counts as functional.
The target of assay [8] is T4, Alpha-1A adrenergic receptor (Homo sapiens, UniProt P35348).
T4 sequence (P35348 whole entry): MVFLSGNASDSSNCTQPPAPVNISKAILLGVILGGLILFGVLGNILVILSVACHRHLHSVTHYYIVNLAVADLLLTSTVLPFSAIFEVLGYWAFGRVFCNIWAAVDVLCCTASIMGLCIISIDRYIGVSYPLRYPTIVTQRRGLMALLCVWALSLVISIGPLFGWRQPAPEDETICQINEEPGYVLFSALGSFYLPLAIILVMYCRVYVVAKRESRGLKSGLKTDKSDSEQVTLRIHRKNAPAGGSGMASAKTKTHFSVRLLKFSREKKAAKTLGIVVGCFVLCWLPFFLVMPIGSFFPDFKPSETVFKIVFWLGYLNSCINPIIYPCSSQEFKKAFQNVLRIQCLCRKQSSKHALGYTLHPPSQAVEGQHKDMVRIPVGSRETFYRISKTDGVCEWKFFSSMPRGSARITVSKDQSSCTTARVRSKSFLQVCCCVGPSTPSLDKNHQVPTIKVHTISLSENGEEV
Further: assay procedure not described here.

D(1A) dopamine receptor, sequence (P21728 whole entry): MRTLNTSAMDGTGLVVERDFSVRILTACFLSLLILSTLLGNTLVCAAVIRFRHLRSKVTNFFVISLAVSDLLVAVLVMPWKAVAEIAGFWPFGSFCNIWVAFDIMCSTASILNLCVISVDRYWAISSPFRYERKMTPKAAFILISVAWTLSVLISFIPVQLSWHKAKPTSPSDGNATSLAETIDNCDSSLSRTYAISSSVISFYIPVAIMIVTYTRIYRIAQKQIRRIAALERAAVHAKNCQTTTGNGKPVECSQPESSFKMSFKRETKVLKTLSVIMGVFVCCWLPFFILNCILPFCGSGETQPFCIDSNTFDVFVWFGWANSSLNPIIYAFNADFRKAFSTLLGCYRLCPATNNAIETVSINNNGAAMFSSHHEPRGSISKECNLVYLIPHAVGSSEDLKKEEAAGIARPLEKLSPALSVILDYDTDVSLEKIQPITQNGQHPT
Glucagon receptor, sequence (P47871 whole entry): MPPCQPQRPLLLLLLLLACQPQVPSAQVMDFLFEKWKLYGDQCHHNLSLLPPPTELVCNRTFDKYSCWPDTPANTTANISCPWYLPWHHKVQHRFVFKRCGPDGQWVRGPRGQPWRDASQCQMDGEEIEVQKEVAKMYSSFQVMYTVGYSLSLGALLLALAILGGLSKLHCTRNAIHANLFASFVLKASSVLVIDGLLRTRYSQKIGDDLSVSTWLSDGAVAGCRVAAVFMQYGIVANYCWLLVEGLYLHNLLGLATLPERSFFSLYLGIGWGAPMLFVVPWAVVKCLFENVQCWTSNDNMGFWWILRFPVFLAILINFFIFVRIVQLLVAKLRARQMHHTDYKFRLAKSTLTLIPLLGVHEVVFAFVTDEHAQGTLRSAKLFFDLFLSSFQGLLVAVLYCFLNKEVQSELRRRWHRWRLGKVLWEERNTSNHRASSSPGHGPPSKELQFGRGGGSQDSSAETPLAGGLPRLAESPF
Melanocortin receptor 4, sequence (P32245 whole entry): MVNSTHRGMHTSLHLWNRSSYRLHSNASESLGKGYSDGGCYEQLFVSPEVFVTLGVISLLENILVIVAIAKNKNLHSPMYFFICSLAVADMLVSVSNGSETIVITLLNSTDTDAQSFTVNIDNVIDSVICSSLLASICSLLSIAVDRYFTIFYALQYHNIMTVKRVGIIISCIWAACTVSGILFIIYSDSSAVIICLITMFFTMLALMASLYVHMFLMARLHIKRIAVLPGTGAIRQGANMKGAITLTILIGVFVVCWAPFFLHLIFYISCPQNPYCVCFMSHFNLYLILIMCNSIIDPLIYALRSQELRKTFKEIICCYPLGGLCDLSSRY
Beta-3 adrenergic receptor, sequence (P13945 whole entry): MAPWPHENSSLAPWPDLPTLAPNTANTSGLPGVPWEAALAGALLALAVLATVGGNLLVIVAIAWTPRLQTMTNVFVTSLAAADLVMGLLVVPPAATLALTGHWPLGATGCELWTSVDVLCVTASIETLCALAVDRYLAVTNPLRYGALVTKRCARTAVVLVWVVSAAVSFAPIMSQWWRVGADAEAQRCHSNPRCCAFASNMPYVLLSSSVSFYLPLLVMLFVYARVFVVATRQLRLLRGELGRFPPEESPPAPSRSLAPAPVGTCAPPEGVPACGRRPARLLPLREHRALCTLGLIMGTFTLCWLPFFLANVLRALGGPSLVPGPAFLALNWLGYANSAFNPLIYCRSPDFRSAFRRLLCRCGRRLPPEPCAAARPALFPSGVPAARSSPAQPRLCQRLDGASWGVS
Voltage-dependent N-type calcium channel subunit alpha-1B, sequence (Q02294 whole entry): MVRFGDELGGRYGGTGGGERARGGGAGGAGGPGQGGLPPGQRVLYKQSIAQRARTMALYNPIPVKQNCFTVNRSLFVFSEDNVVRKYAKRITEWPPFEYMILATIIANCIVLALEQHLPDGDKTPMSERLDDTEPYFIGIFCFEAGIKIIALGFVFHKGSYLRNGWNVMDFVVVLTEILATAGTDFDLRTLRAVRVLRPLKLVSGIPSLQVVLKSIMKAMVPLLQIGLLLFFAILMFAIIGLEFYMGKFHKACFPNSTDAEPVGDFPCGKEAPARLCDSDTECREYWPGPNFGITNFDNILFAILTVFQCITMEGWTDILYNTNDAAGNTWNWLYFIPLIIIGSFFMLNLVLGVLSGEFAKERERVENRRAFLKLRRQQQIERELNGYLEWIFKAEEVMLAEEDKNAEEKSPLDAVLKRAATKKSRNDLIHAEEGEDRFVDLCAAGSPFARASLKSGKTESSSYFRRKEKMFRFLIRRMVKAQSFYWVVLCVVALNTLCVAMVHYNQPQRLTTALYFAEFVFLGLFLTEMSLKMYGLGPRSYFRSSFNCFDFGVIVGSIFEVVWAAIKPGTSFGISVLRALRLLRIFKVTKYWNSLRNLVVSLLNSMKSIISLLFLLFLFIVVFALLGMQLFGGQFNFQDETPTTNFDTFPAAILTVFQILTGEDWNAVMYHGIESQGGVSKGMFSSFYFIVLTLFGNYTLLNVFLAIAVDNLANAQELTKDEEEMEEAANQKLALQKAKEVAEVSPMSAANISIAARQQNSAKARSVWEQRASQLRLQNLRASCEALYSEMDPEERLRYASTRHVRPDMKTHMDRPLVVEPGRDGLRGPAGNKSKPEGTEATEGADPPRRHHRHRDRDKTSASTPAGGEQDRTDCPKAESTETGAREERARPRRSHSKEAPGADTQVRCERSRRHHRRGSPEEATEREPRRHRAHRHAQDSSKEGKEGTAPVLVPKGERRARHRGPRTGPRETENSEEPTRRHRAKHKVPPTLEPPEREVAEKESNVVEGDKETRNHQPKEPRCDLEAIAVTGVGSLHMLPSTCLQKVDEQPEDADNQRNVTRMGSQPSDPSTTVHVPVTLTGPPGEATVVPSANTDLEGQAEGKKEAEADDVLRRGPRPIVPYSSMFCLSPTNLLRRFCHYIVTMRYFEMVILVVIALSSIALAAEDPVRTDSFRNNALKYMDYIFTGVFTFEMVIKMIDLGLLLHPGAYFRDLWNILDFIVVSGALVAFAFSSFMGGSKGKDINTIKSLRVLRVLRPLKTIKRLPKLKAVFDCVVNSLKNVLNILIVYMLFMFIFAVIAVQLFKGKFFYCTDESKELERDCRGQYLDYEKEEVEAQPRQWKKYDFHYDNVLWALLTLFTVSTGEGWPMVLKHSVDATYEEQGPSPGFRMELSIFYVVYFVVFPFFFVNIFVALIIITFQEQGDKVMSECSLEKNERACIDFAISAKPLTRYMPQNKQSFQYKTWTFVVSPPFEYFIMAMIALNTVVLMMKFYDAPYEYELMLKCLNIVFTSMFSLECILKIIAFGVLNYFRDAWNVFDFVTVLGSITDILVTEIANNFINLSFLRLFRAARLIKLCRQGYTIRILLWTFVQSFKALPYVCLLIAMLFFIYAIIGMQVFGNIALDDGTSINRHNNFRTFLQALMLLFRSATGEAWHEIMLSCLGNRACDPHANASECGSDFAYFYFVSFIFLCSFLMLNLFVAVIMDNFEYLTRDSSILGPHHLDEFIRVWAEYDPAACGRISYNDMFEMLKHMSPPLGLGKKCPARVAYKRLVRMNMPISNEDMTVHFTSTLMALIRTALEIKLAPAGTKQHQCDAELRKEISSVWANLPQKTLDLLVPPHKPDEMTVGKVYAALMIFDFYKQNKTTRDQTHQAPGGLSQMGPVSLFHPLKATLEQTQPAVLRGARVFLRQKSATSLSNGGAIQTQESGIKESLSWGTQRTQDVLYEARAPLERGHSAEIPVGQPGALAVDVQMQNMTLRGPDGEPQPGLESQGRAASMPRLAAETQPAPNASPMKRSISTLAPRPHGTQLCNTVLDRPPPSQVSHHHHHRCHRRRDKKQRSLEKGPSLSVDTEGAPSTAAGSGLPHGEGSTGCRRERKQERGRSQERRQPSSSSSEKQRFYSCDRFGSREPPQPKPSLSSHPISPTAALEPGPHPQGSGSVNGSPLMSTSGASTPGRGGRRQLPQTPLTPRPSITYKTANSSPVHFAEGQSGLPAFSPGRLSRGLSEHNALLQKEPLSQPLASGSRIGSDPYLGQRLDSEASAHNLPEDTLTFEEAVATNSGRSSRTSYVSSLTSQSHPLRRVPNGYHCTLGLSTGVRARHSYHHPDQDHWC
Substance-P receptor, sequence (P25103 whole entry): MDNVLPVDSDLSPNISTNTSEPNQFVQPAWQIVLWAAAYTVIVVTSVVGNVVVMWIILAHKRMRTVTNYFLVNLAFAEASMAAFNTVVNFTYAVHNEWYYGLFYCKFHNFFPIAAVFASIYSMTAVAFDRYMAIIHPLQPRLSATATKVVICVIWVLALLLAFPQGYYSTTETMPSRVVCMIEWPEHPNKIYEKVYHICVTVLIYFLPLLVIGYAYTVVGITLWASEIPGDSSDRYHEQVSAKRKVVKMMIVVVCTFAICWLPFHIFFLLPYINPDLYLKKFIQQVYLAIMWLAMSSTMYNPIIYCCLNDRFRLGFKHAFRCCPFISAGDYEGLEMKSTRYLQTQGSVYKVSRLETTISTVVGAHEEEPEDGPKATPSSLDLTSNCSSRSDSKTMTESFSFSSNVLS
5-hydroxytryptamine receptor 2A, sequence (P28223 whole entry): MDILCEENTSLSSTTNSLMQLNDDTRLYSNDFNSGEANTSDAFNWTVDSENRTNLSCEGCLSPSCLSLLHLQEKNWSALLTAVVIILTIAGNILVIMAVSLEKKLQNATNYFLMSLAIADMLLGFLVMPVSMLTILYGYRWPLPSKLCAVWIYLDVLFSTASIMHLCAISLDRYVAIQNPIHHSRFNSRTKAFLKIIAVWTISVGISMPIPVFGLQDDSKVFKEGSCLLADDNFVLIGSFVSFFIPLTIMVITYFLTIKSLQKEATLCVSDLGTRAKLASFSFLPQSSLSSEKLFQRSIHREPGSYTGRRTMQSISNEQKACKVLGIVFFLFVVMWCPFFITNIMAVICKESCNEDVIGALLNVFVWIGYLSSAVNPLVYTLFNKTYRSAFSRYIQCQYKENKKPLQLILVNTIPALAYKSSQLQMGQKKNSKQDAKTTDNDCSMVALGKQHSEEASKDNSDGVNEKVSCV

On to `CCC(CC)(CC(=O)Nc1cccc(/C=C/c2nc(C3CCC3)cs2)c1)C(=O)O`, for which the AC50 (as a rule, the concentration giving half of the maximal activity seen) at Progesterone receptor [1] was greater than 30 µM.
Regarding `CC[C@@H](C(N)=O)N1CCCC1=O`, the AC50 (in assay [2]; on Progesterone receptor [1]) was greater than 30 µM in each case.
In the case of `CCCCCNC(=N)N/N=C/c1c[nH]c2ccc(OC)cc12` [TEGASEROD], the AC50 was 6.08 µM in assay [3]; greater than 30 µM in [4]; greater than 30 µM in assay [5]; greater than 30 µM at Glucagon receptor; greater than 30 µM in [2]; 5.34 µM at Melanocortin receptor 4. In addition, the AC50 on Progesterone receptor [1] is 21 µM; on Progesterone receptor [6], greater than 30 µM; on Substance-P receptor it was greater than 10 µM.
As to `COc1cc2nc(N3CCN(C(=O)c4ccco4)CC3)nc(N)c2cc1OC` [PRAZOSIN], the AC50 in [3] is greater than 30 µM; in [7] it was greater than 10 µM; in assay [4], greater than 30 µM; in assay [5], greater than 30 µM; on Glucagon receptor, greater than 30 µM; on Melanocortin receptor 4, greater than 30 µM. Further, the figures for the AC50 at Progesterone receptor [6] and on Substance-P receptor were greater than 30 µM and greater than 10 µM, respectively.
On to `COc1ccccc1N1CCN(CC(O)COc2cccc3ccccc23)CC1` (stereo not drawn) [NAFTOPIDIL], for which the AC50 in assay [8] is 0.02 µM; at D(1A) dopamine receptor it was greater than 30 µM; in assay [2] it was greater than 30 µM; at Progesterone receptor [1] it was greater than 30 µM.
As to `O=[N+]([O-])O[C@@H]1CO[C@H]2[C@@H]1OC[C@@H]2O` [ISOSORBIDE MONONITRATE], the AC50 in assay [3] was greater than 30 µM; in assay [7] it was greater than 10 µM; in assay [4], greater than 30 µM; in assay [5] it was greater than 30 µM; at Glucagon receptor, greater than 30 µM; on Melanocortin receptor 4, greater than 30 µM. Besides, the figures for the AC50 at Progesterone receptor [6] and at Substance-P receptor were greater than 30 µM and greater than 10 µM, respectively.
In [2], `CN1CCN(C2=Nc3ccccc3Sc3ccc(Cl)cc32)CC1` [CLOTHIAPINE] had an AC50 greater than 30 µM.
`O=[N+]([O-])c1cn2c(n1)OC[C@@H](OCc1ccc(OC(F)(F)F)cc1)C2` [PRETOMANID]: the AC50 in assay [3] is greater than 30 µM; in assay [7], greater than 10 µM; on Glucagon receptor it was greater than 30 µM; on Melanocortin receptor 4, greater than 30 µM; on Substance-P receptor, greater than 10 µM.
Take `CN(C)CCC=C1c2ccccc2C=Cc2ccccc21` [CYCLOBENZAPRINE]: the AC50 is greater than 30 µM in [3]; greater than 10 µM in assay [7]; greater than 30 µM in assay [4]; greater than 30 µM in [5]; greater than 30 µM on Glucagon receptor; greater than 30 µM at Melanocortin receptor 4. This compound also returned an AC50 on Progesterone receptor [6] greater than 30 µM.
As for `C=CCN1C[C@H](C(=O)N(CCCN(C)C)C(=O)NCC)C[C@@H]2c3cccc4[nH]cc(c34)C[C@H]21` [CABERGOLINE], the AC50 in [2] is 0.0626 µM; on Melanocortin receptor 4, greater than 10 µM; at Progesterone receptor [1], greater than 10 µM.
On to `CCOc1ccc(Cc2cc([C@@H]3O[C@H](CO)[C@@H](O)[C@H](O)[C@H]3O)ccc2Cl)cc1` [DAPAGLIFLOZIN], for which the AC50 was greater than 30 µM in [3], greater than 10 µM in [7], greater than 30 µM on Melanocortin receptor 4 and greater than 30 µM at Progesterone receptor [6].
As to `COc1ccc(C(=O)Nc2ccccc2CCC2CCCCN2C)cc1` (stereo not drawn) [ENCAINIDE], the AC50 was greater than 30 µM in [3]; greater than 10 µM in assay [7]; greater than 30 µM in [4]; greater than 30 µM in assay [5]; greater than 30 µM at Glucagon receptor; greater than 30 µM in assay [2]. Also, the results for the AC50 on Melanocortin receptor 4, at Progesterone receptor [6] and at Substance-P receptor were greater than 30 µM, greater than 30 µM and greater than 10 µM, respectively.
`CCOc1ccccc1OCC1CNCCO1` (stereo not drawn) [VILOXAZINE]: the AC50 was greater than 30 µM in [3]; greater than 10 µM in assay [7]; greater than 30 µM in [4]; greater than 30 µM in assay [5]; greater than 30 µM on Glucagon receptor; greater than 30 µM at Melanocortin receptor 4. Besides, the results for the AC50 on Progesterone receptor [6] and on Substance-P receptor were greater than 30 µM and greater than 10 µM, respectively.
As for `CN(C)CC/C=C1\c2ccccc2CSc2ccccc21` [DOTHIEPIN], the AC50 (in assay [2]; on Progesterone receptor [1]) was greater than 30 µM in each case.
For the compound `Cc1cc(C)c(NC(=O)CN(CC(=O)O)CC(=O)O)c(C)c1Br` [MEBROFENIN], the AC50 (in [8]; on D(1A) dopamine receptor; in assay [2]) was greater than 30 µM in each case.
On to `CCCC1O[C@@H]2C[C@H]3[C@@H]4CCC5=CC(=O)C=C[C@]5(C)[C@H]4[C@@H](O)C[C@]3(C)[C@]2(C(=O)CO)O1` (stereo partly drawn) [BUDESONIDE], for which the AC50 at Melanocortin receptor 4 was greater than 10 µM.
Turning to `C=CCCCCCCCCC(=O)O` [UNDECYLENIC ACID], the AC50 (in [8]; at D(1A) dopamine receptor) was greater than 30 µM throughout.
For the compound `COC1=C(OC)C(=O)C(C/C=C(\C)CC/C=C(\C)CC/C=C(\C)CC/C=C(\C)CC/C=C(\C)CC/C=C(\C)CC/C=C(\C)CC/C=C(\C)CC/C=C(\C)CCC=C(C)C)=C(C)C1=O` [UBIDECARENONE], in assay [2], the AC50 was greater than 30 µM.
As to `Cc1oc(=O)oc1CN1CCN(c2cc3c(cc2F)c(=O)c(C(=O)O)c2n3C(C)S2)CC1` (stereo not drawn) [PRULIFLOXACIN], the AC50 (in [8]; on D(1A) dopamine receptor; in assay [2]) was greater than 30 µM in each case.
Take `CN(C)CCc1c[nH]c2ccc(C[C@H]3COC(=O)N3)cc12` [ZOLMITRIPTAN]: the AC50 in assay [2] is 14 µM; on Progesterone receptor [1] it was greater than 30 µM.
For `Nc1ccncc1N` [AMIFAMPRIDINE], the AC50 (in assay [8]; on D(1A) dopamine receptor) was greater than 30 µM each time.
On to `CC[C@H]1CN2CCc3cc(OC)c(OC)cc3[C@@H]2C[C@@H]1C[C@H]1NCCc2cc(OC)c(OC)cc21` [EMETINE], for which the AC50 in [8] was 2.51 µM; on D(1A) dopamine receptor, greater than 30 µM; on Progesterone receptor [1], greater than 30 µM.

Values taken from ChEMBL document CHEMBL5291721, “A preclinical secondary pharmacology resource illuminates target-adverse drug reaction associations of marketed drugs” (Nat Commun, 2023).
